Patent US12503448B2, “Antibacterial and antiparasitic quinoxaline-2,3-diamine derivatives” (University College Cardiff Consultants Limited, priority 2019, dated 2025)
Converted amounts (≈) assume the structure as drawn. Where two headings read alike, the source gives them in different places.

How the values were obtained:
[1] = Metabolic stability in mouse liver microsomes; conditions: liver microsomes
Schistosoma mansoni = assay: Anti-schistosomal in vivo efficacy screen (murine model of schistosomiasis); conditions: 100 mg/kg oral, two doses (day 1 and day 3), mice
Protocol: Anti-Schistosomal in vivo Efficacy Screen
An anti-schistosomal efficacy trial of the compounds described herein was conducted on a murine model of Schistosomiasis using the following procedure. Schistosoma mansoni cercaria were prepared from infected Biomphalaria glabrata snails by inducing synchronous shedding upon exposure to light for 40 minutes (in artificial pond water). […] A maximum of 6 mice were housed in a cage for the duration of the 7-week infection.
At 6 wks post infection (Day 42 post infection), mice were dosed with anthelmintic chemicals using autoclaved gavage needles for oral delivery. The gavage needle was dipped into a concentrated solution of sucrose (approx. 1 g/ml) before dosing as a refinement measure to reduce stress-related reactions.
For oral dosing, the compounds (dry powder) were weighed and prepared in an appropriate excipient (e.g. 10% DMSO, 20% Kolliphor EL and 70% sterile water). […]
At the end of the treatment (on day 48 post-infection), mice were perfused after receiving an intra-peritoneal administration of non-recoverable dose of sodium pentobarbital (100 μl/10 g body weight) containing 100 U/ml heparin solution (in 1×PBS). […] After incubation in a humidified environment containing 5% CO2 at 37° C. for at least 1 h, the quantification of worm burden per each mouse of each treatment was performed. […]

[2] = Semi thermodynamic solubility; conditions: thermodynamic from solid
S. mansoni schistosomula = assay: 72 hours schistosomula drug screen; format: cell-based, Schistosoma mansoni; conditions: for Selectivity Index Schistosomula: HepG2 CC50 over schistosomula EC50; for EC50: Schistosoma mansoni
Protocol: Biological Screening 72 Hours Schistosomula Drug Screen […] G. Colley, […], Schistosoma mansoni: simplified method for the production of schistosomules., Exp. Parasitol. 35 (1974) 44-51. Newly transformed schistosomula were prepared for 72 hour high throughput screening (HTS) in 384-well black-sided microtiter plates (Perkin Elmer, MA, USA) as described in M. Nur-e-alam, M. Yousaf, […]. Bari, H. A. Ghabbour, […]. Ho, A. J. […], Neoclerodane Diterpenoids from […], Teucrium […]. Nat. […] The data obtained in this manner is shown in Table 1 in the columns labelled “Phenotype”, “Motility” and “Schistosomula average”.

[3] = Mouse pharmacokinetics, oral cassette dosing; conditions: for AUC(0-t) / Cmax / MRT last / Tmax: male, C57/BL6, mouse, plasma, po, 2.5 mg/kg; for Tlast: oral, nominal dose 2.5 mg/kg, cassette
Protocol: Non-compartmental mouse pharmacokinetics (Male C57/BL6 Mouse, Fasted; 3 mice per group) were determined after oral administration of a nominal dose of 2.5 mg/kg of these formulations in cassettes (5 compounds/group) according to the protocols employed by WuXi (https://www.wuxiapptec.com; the CRO that conducted these studies).

[4] = test system: F. hepatica newly excysted juveniles (NEJs); assay: Newly excysted juveniles (NEJs) drug screen; format: cell-based, Fasciola hepatica; design: scale not given here; conditions: 10 μM, 72 h; higher score indicates lower worm activity
Protocol: Newly Excysted Juveniles (NEJs) Drug Screen
F. hepatica (Italian strain) metacercariae were obtained from Ridgeway Research, Gloucestershire, UK and stored at 4° C. Newly excysted juveniles (NEJs) from metacercariae were produced based on an optimisation introduced to the excystment method published by Dixon et al. and Wilson et al (Dixon, K. E., The physiology of excystment of the metacercaria of Fasciola hepática L. Parasitology, 1966, 56, 431-456.; Wilson, L. R., Good, R. T., Panaccio, M., Wijffels, G. L., Sandeman, R. M., Spithill, T. W, Fasciola hepatica: Characterization and Cloning of the Major Cathepsin B Protease Secreted by Newly Excysted Juvenile Liver Fluke. Experimental Parasitology 1998, 88, 85-94).
After excystment, NEJs were distributed into a 24 well tissue culture plate at a density of 25 parasites per well containing 1 mL of pre-warmed NEJs culture media. Compounds were added to respective wells and NEJ/compound co-cultures were incubated at 37° C. in an atmosphere containing 5% CO2 for 72 hours at a final concentration of 10 μM.
F. hepatica NEJs (25 per well) were incubated with the three compounds at a concentration of 10 μM (in 0.1% DMSO) and cultured for 72 hrs at 37° C. in an atmosphere containing 5% CO2. Control wells (25 NEJs per well) included those containing 0.1% DMSO (solvent) and RMPI (media) as negative controls or 10 μM Triclabendazole (0.1% DMSO, as positive control, labelled “Tbz” (Comp. 3). After 72 hrs, all NEJs were scored for phenotype and motility metrics. For each treatment, an average of both phenotype and motility score was calculated based on the individual parasite scores (across two independent replicates), wherein a higher score indicates lower worm activity. SD is reported on the bar chart.

S. mansoni adult worms = assay: Adult worm drug screen (WHO scoring, WormassayGP2); format: cell-based, Schistosoma mansoni
Excerpt: Mice (MF-1 mice, Harlan, UK), infected 7 weeks previously with 180 cercaria, were euthanised with an intraperitoneal injection of phenobarbital/heparin solution. Adult worms were recovered by perfusion of the portal system and subjected to drug screening as previously described in Padalino G, Ferla S, Brancale A, Chalmers I W, Hoffmann K F. Int J Parasitol Drugs Drug Resist. 2018 December; 8(3):559-570; in Whiteland H L, Chakroborty A, Forde-Thomas J E, Crusco A, Cookson A, Hollinshead J, Fenn C A, Bartholomew B, Holdsworth P A, Fisher M, Nash R J, Hoffmann K F. Int J Parasitol Drugs Drug Resist. 2018 December; 8(3):465-474; and in Crusco A, Bordoni C, Chakroborty A, Whatley K C L, Whiteland H, Westwell A D, Hoffmann K F. Eur J Med Chem. 2018 May 25; 152:87-100. The data obtained in this manner is shown in Table 1 in the columns labelled “Adult worm”.
Regarding the quantification of drug treatment on adult worms (e.g. decreased activity, paralysis or sluggishness), two different approaches were used, as described below. Where egg deposition was noticed, eggs were removed and counted using a Sedgewick rafter slide.
Adult worms were scored using the standardized microscopic WHO-TDR scoring system previously described by Ramirez, B., Bickle, Q., Yousif, F., Fakorede, F., Mouries, M.-A., Nwaka, S. in Schistosomes: Challenges in compound screening, Expert Opin Drug Discov. 2007 October; 2(s1): S53-61. This scoring system (0-4) identifies changes in worm movement and is defined according to the following scoring matrix: 0=no movement, 1=no movement with visible gut peristalsis, 2=minimal movement (occasional movement from anterior or posterior end of the worm), 3=slow continuous movement and 4=normal movement.
A digital image processing-based system was also used to assess parasite motility after drug treatment and is a modification of methods previously described by Marcellino C., Gut, J., Lim, K., Singh R., McKerrow, L. and Sakanari, J. WormAssay: a novel computer application for whole-plate motion-based screening of macroscopic parasites. PLoS Negl Trop Dis. 2012 January:6(1):e1494. This allowed for objective verification of the WHO method described above. The data obtained with this quantification method is shown in Table 1 in the columns labelled “Adult worm”.

MTT assay on HepG2 cells = format: cell-based; conditions: human
Protocol: MTT Assay on HepG2 Cells Human Hepatocyte Carcinoma (HepG2) cells (85011430, Sigma Aldrich) were used to assess the overt toxicity of these anti-infective compounds. […] A negative control (1% v/v Triton X-100; X100, Sigma-Aldrich) was also included in each screen. After addition of compounds, each plate was then incubated for a further 20 hrs before application of MTT reagent (prepared as described in Nur-[…], Bari A, Ghabbour […], Hoffmann […] Nat Prod. 2017 Jun. 23; 80(6):1900-1908 for the assessment of compound cytotoxicity using the MTT assay. […] The plate was then further incubated for 4 hrs. After incubation, each plate was blotted dry under the laminar flow to remove the MTT treated culture media. A 100 μl DMSO: isopropanol (1:1) solution was then added to each well and the plate was then subsequently incubated for 10 minutes at 37° C. Following incubation, each plate was shaken again and then absorbance measured at 570 nm. The absorbance reading was corrected based on the average value of the wells used as blank (no cells). […] The data obtained in this manner is shown in Table 1 in the columns labelled “HepG2”. […] The selectivity indexes for schistosomula and adult worms are shown in the final two columns in Table 1.

H3K4 methylation = assay: Histone extraction and detection of global H3K4 methylation in treated adult worms; format: cell-based, Schistosoma mansoni; conditions: sub-lethal concentration 0.0024 μM, male and female adult worms
in vitro = conditions: plasma
[5] = average of phenotype and motility, read-out: EC50 Schistosomula average
[6] = schistosomula, 72 hour culture, read-out: EC50 Motility
[7] = schistosomula, 72 hour culture, read-out: EC50 Phenotype

Row | half-life at 1 μM [1] [h] | microsomal CLint at 1 μM [1] [µL/min/mg] | solubility thermodynamic [2] [µM] | EC50 (S. mansoni schistosomula; [5]) [nM] | EC50 (S. mansoni schistosomula; [6]) [nM] | EC50 (S. mansoni schistosomula; [7]) [nM] | AUC(0-t) [3] [ng·h/mL] | Cmax [3] [ng/mL] | MRT last [3] [h] | Tmax [3] [h] | Tlast [3] [h] | SMILES | Selectivity Index Schistosomula (S. mansoni schistosomula) | Motility (M) Mean score [4] | Phenotype (P) Mean score [4] | also measured
1 | 2.52 | 9.18 | 12.7 (≈ 5.41 µg/mL) | 470 | 530 | 400 | 436 | 90.4 | 4.25 | 3.33 | 8.00 | O=[N+]([O-])c1ccc2nc(Nc3ccc(Cl)cc3)c(Nc3ccc(Cl)cc3)nc2c1 [Compound 4, N^2, N^3-bis(4-chlorophenyl)-6-nitroquinoxaline-2,3-diamine] | 28 | 4.71 | 5.13 | reduction in worm burden in vivo compared to the vehicle (Schistosoma mansoni): 35.5%; reduction in egg count in vivo compared to the vehicle (Schistosoma mansoni; liver eggs): 39.9%
2 | 1.45 | 16 | 6.95 (≈ 3.68 µg/mL) | 480 | 470 | 480 | 337 | 79.3 | 4.22 | 4 | 8.00 | O=[N+]([O-])c1ccc2nc(Nc3cc(C(F)(F)F)ccc3F)c(Nc3cc(C(F)(F)F)ccc3F)nc2c1 [Compound 9, N^2, N^3-bis(2-fluoro-5-(trifluoromethyl)phenyl)-6-nitroquinoxaline-2,3-diamine] | 223 | 3.68 | 4.63 | Selectivity Index Adult (S. mansoni adult worms; HepG2 CC50 over adult worm EC50): 29464; EC50 (S. mansoni adult worms; Schistosoma mansoni, adult worms): 3.6 nM; CC50 at 24 h (MTT assay on HepG2 cells): 106000 nM; global H3K4 methylation compared to the negative control (DMSO) (H3K4 methylation): significant % decrease
3 |  |  | > 100 |  |  |  |  |  |  |  |  | CC(=O)CC(c1ccccc1)c1c(O)c2ccccc2oc1=O (stereo not drawn) [Warfarin, reference compound] |  |  |  | fraction unbound (in vitro): 0.0727
